Measurements from patent US11084829B2, “Ubiquitin-specific-processing protease 7 (USP7) modulators and uses thereof” (RAPT THERAPEUTICS, INC., priority 2018, dated 2021).

Target: USP7 (Homo sapiens, UniProt Q93009)
Experiment: USP7 inhibitory potency (IC50)
Format: biochemical
Protocol: Activity for compounds described herein is provided in Table 2, wherein potency levels are provided as follows: (Potency: USP7 IC50: A<0.01 μM; B=0.01-0.1 μM; C=>0.1 μM.

Sequence of USP7 (Q93009 whole entry): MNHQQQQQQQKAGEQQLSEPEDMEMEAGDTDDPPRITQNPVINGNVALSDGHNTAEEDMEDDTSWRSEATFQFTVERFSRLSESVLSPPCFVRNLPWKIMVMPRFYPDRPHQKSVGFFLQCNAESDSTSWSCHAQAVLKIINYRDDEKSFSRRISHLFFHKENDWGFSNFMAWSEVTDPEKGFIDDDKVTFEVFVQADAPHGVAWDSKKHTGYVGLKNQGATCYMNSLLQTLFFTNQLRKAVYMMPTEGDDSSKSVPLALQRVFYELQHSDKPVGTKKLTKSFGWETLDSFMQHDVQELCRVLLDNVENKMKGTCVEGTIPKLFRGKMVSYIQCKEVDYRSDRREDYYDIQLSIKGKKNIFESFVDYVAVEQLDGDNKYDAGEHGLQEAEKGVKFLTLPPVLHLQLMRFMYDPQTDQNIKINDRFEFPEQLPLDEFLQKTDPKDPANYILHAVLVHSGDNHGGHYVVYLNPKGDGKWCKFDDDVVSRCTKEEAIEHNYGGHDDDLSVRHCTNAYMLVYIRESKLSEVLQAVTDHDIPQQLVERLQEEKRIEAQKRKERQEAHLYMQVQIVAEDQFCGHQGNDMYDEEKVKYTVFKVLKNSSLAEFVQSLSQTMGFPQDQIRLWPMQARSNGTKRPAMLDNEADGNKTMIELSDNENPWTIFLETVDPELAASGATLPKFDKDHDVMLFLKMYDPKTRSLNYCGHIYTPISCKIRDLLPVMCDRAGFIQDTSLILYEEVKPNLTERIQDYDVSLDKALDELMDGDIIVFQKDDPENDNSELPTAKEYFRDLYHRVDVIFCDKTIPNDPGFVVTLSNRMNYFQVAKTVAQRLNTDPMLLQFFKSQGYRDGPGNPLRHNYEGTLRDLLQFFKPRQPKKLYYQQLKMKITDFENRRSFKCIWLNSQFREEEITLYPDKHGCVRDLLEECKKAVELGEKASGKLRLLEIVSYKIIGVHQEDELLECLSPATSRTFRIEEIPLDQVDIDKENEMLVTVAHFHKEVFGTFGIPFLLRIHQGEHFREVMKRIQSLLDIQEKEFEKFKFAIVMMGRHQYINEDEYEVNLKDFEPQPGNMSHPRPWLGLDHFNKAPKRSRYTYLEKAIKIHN

`Cc1cc(Cl)cc(-c2ncnc3cc(CN4C(=O)C5CCCN5C4=O)sc23)c1CC1CNCC(C)(C)O1` (stereo not shown) [Example 191, 2-((4-(5-chloro-2-((6,6-dimethylmorpholin-2-yl)methyl)-3-methylphenyl)thieno[3,2-d]pyrimidin-6-yl)methyl)tetrahydro-1H-pyrrolo[1,2-c]imidazole-1,3(2H)-dione] and `Cc1cc(Cl)cc(-c2ncnc3cc(CN4C(=O)CCNC4=O)sc23)c1C[C@@H]1CNCC(C)(C)O1` [Example 270, (R)-3-((4-(5-chloro-2-((6,6-dimethylmorpholin-2-yl)methyl)-3-methylphenyl)thieno[3,2-d]pyrimidin-6-yl)methyl)dihydropyrimidine-2,4(1H,3H)-dione] cannot be ordered by IC50: less than 10 nM for the first, less than 10 nM for the second.

`CCN1CC(=O)N(Cc2cc3ncnc(-c4cc(Cl)cc(C)c4CC4CNCCO4)c3s2)C1=O` (stereo not shown) [Example 188, 3-((4-(5-chloro-3-methyl-2-(morpholin-2-ylmethyl)phenyl)thieno[3,2-d]pyrimidin-6-yl)methyl)-1-ethylimidazolidine-2,4-dione] and `Cc1cc(Cl)cc(-c2ncnc3cc(CN4C(=O)CN(C)C4=O)sc23)c1CC1CNCCO1` (stereo not shown) [Example 177, 3-((4-(5-chloro-3-methyl-2-(morpholin-2-ylmethyl)phenyl)thieno[3,2-d]pyrimidin-6-yl)methyl)-1-methylimidazolidine-2,4-dione] cannot be ordered by IC50: less than 10 nM for the first, less than 10 nM for the second.

`Cc1cc(Cl)cc(-c2ccnc3cc(CN4C(=O)C5CC5C4=O)sc23)c1C[C@H]1OCCN[C@H]1C` (stereo partly drawn) [Example 106, 3-((7-(5-chloro-3-methyl-2-(((2R,3 S)-3-methylmorpholin-2-yl)methyl)phenyl)thieno[3,2-b]pyridin-2-yl)methyl)-3-azabicyclo[3.1.0]hexane-2,4-dione] and `Cc1cc(Cl)cc(-c2ccnc3cc(CN4C(=O)C5CC5C4=O)sc23)c1C[C@@H]1CNCC(C)(C)O1` (stereo partly drawn) [Example 129, 3-((7-(5-chloro-2-(((R)-6,6-dimethylmorpholin-2-yl)methyl)-3-methylphenyl)thieno[3,2-b]pyridin-2-yl)methyl)-3-azabicyclo[3.1.0]hexane-2,4-dione] cannot be ordered by IC50: less than 10 nM for the first, less than 10 nM for the second.

First: Cc1cc(Cl)cc(-c2ncnc3cc(CN4C(=O)CCC4(C)C#N)sc23)c1CC1CNCC(C)(C)O1 (stereo not shown) [Example 195, 1-((4-(5-chloro-2-((6,6-dimethylmorpholin-2-yl)methyl)-3-methylphenyl)thieno[3,2-d]pyrimidin-6-yl)methyl)-2-methyl-5-oxopyrrolidine-2-carbonitrile]
Second: Cc1cc(Cl)cc(-c2ncnc3cc(CN4C(=O)CC[C@@H]4C(F)F)sc23)c1CC1CNCC(C)(C)O1 (stereo partly drawn) [Example 230, (5R)-1-((4-(5-chloro-2-((6,6-dimethylmorpholin-2-yl)methyl)-3-methylphenyl)thieno[3,2-d]pyrimidin-6-yl)methyl)-5-(difluoromethyl)pyrrolidin-2-one]
The IC50 of the first is higher: 10 to 100 nM for the first, less than 10 nM for the second.

`C[C@H]1CNC[C@H](C)N1Cc1c(Cl)cc(Cl)cc1-c1ncnc2cc(CN3C(=O)C4CC4C3=O)sc12` (stereo partly drawn) [Example 85, 3-((4-(3,5-dichloro-2-(((2S,6S)-2,6-dimethylpiperazin-1-yl)methyl)phenyl)thieno[3,2-d]pyrimidin-6-yl)methyl)-3-azabicyclo[3.1.0]hexane-2,4-dione] and `Cc1cc(Cl)cc(-c2ncnc3cc(CN4C(=O)CN(C)C4=O)sc23)c1CN1[C@@H](C)CNC[C@@H]1C` [Example 87, 3-((4-(5-chloro-2-(((2S,6S)-2,6-dimethylpiperazin-1-yl)methyl)-3-methylphenyl)thieno[3,2-d]pyrimidin-6-yl)methyl)-1-methylimidazolidine-2,4-dione] cannot be ordered by IC50: less than 10 nM for the first, less than 10 nM for the second.

First: Cc1cc(Cl)cc(-c2ncnc3cc(Cn4c(=O)ccn(C)c4=O)sc23)c1CC1CNCC(C)(C)O1 (stereo not shown) [Example 192, 3-((4-(5-chloro-2-((6,6-dimethylmorpholin-2-yl)methyl)-3-methylphenyl)thieno[3,2-d]pyrimidin-6-yl)methyl)-1-methylpyrimidine-2,4(1H,3H)-dione]
Second: Cc1cc(Cl)cc(-c2ncnc3cc(Cn4c(=O)cc[nH]c4=O)sc23)c1C[C@@H]1CNCC(C)(C)O1 [Example 266, (R)-3-((4-(5-chloro-2-((6,6-dimethylmorpholin-2-yl)methyl)-3-methylphenyl)thieno[3,2-d]pyrimidin-6-yl)methyl)pyrimidine-2,4(1H,3H)-dione]
The IC50 of the first is lower: less than 10 nM for the first, 10 to 100 nM for the second. The first is the more potent here.

`Cc1cc(Cl)cc(-c2ncnc3cc(CN4C(=O)CCN(C)C4=O)sc23)c1CC1CNCC2(COC2)O1` (stereo not shown) [Example 238, 3-((4-(2-((2,5-dioxa-8-azaspiro[3.5]nonan-6-yl)methyl)-5-chloro-3-methylphenyl)thieno[3,2-d]pyrimidin-6-yl)methyl)-1-methyldihydropyrimidine-2,4(1H,3H)-dione] and `Cc1cc(Cl)cc(-c2ncnc3cc(CN4C(=O)CCN(C)C4=O)sc23)c1CC1CNCC2(CCC2)O1` (stereo not shown) [Example 222, 3-((4-(2-((5-oxa-8-azaspiro[3.5]nonan-6-yl)methyl)-5-chloro-3-methylphenyl)thieno[3,2-d]pyrimidin-6-yl)methyl)-1-methyldihydropyrimidine-2,4(1H,3H)-dione] cannot be ordered by IC50: less than 10 nM for the first, less than 10 nM for the second.

First: Cc1cc(Cl)cc(-c2ncnc3cc(CN4C(=O)C5CC5C4=O)sc23)c1CN1[C@@H](C)CN(C(=O)C(F)(F)F)C[C@@H]1C (stereo partly drawn) [Example 84, 3-((4-(5-chloro-2-(((2S,6S)-2,6-dimethyl-4-(2,2,2-trifluoroacetyl)piperazin-1-yl)methyl)-3-methylphenyl)thieno[3,2-d]pyrimidin-6-yl)methyl)-3-azabicyclo[3.1.0]hexane-2,4-dione]
Second: Cc1cc(C(F)(F)F)cc(-c2ncnc3cc(CN4C(=O)C5CC5C4=O)sc23)c1CN1CCNC[C@@H]1C (stereo partly drawn) [Example 58, 3-((4-(3-methyl-2-(((S)-2-methylpiperazin-1-yl)methyl)-5-(trifluoromethyl)phenyl)thieno[3,2-d]pyrimidin-6-yl)methyl)-3-azabicyclo[3.1.0]hexane-2,4-dione]
The IC50 of the first is lower: less than 10 nM for the first, 10 to 100 nM for the second. The first is the more potent here.

First: Cc1cc(Cl)cc(-c2ccnc3cc([C@H](C)N4C(=O)C5CC5C4=O)sc23)c1C[C@@H]1CNCC(C)(C)O1 (stereo partly drawn) [Example 137, 3-((S)-1-(7-(5-chloro-2-(((R)-6,6-dimethylmorpholin-2-yl)methyl)-3-methylphenyl)thieno[3,2-b]pyridin-2-yl)ethyl)-3-azabicyclo[3.1.0]hexane-2,4-dione]
Second: Cc1cc(Cl)cc(-c2ccnc3cc(CN4C(=O)C5CC5C4=O)sc23)c1CC1CNCCS1(=O)=O (stereo not shown) [Example 100, 3-((7-(5-chloro-2-((1,1-dioxidothiomorpholin-2-yl)methyl)-3-methylphenyl)thieno[3,2-b]pyridin-2-yl)methyl)-3-azabicyclo[3.1.0]hexane-2,4-dione]
The IC50 of the first is lower: less than 10 nM for the first, 10 to 100 nM for the second. The first is the more potent here.

First: Cc1cc(Cl)cc(-c2ccnc3cc(CN4C(=O)C5CC5C4=O)sc23)c1CN1CCCNC(C)C1 (stereo not shown) [Example 41, 3-((7-(5-chloro-3-methyl-2-((3-methyl-1,4-diazepan-1-yl)methyl)phenyl)thieno[3,2-b]pyridin-2-yl)methyl)-3-azabicyclo[3.1.0]hexane-2,4-dione]
Second: Cc1cc(Cl)cc(-c2ccnc3cc(CN4C(=O)C5C(C4=O)C5(C)C)sc23)c1CN1CCNC[C@@H]1C (stereo partly drawn) [Example 20, 3-((7-(5-chloro-3-methyl-2-(((S)-2-methylpiperazin-1-yl)methyl)phenyl)thieno[3,2-b]pyridin-2-yl)methyl)-6,6-dimethyl-3-azabicyclo[3.1.0]hexane-2,4-dione]
The IC50 of the first is higher: 10 to 100 nM for the first, less than 10 nM for the second. The second is the more potent here.

First: Cc1cc(C(F)(F)F)cc(-c2ncnc3cc(CN4C(=O)C5C(C4=O)C5(C)C)sc23)c1CN1CCNC[C@@H]1C (stereo partly drawn) [Example 59, 6,6-dimethyl-3-((4-(3-methyl-2-(((S)-2-methylpiperazin-1-yl)methyl)-5-(trifluoromethyl)phenyl)thieno[3,2-d]pyrimidin-6-yl)methyl)-3-azabicyclo[3.1.0]hexane-2,4-dione]
Second: Cc1cc(Cl)cc(-c2ncnc3cc(CN4C(=O)CC[C@H]4C(F)(F)F)sc23)c1CN1[C@@H](C)CNC[C@@H]1C [Example 90, (S)-1-((4-(5-chloro-2-(((2S,6S)-2,6-dimethylpiperazin-1-yl)methyl)-3-methylphenyl)thieno[3,2-d]pyrimidin-6-yl)methyl)-5-(trifluoromethyl)pyrrolidin-2-one]
The IC50 of the first is lower: 10 to 100 nM for the first, greater than 100 nM for the second.

First: Cc1cc(Cl)cc(-c2ncnc3cc(CN4C(=O)CCN(CC(F)F)C4=O)sc23)c1C[C@@H]1CNCC(C)(C)O1 [Example 240, (R)-3-((4-(5-chloro-2-((6,6-dimethylmorpholin-2-yl)methyl)-3-methylphenyl)thieno[3,2-d]pyrimidin-6-yl)methyl)-1-(2,2-difluoroethyl)dihydropyrimidine-2,4(1H,3H)-dione]
Second: Cc1cc(Cl)cc(-c2ncnc3cc(CN4CCCCC4=O)sc23)c1CC1CNCCO1 (stereo not shown) [Example 175, 1-((4-(5-chloro-3-methyl-2-(morpholin-2-ylmethyl)phenyl)thieno[3,2-d]pyrimidin-6-yl)methyl)piperidin-2-one]
The IC50 of the first is lower: less than 10 nM for the first, greater than 100 nM for the second. The first is the more potent here.

First: Cc1cc(Cl)cc(-c2ccnc3cc(CN4C(=O)CCC4=O)sc23)c1CN1CCNC[C@@H]1C [Example 8, (S)-1-((7-(5-chloro-3-methyl-2-((2-methylpiperazin-1-yl)methyl)phenyl)thieno[3,2-b]pyridin-2-yl)methyl)pyrrolidine-2,5-dione]
Second: Cc1cc(Cl)cc(-c2ccnc3c(F)c(CN4C(=O)CNC4=O)sc23)c1C[C@@H]1CNCCO1 [Example 147, (R)-3-((7-(5-chloro-3-methyl-2-(morpholin-2-ylmethyl)phenyl)-3-fluorothieno[3,2-b]pyridin-2-yl)methyl)imidazolidine-2,4-dione]
The IC50 of the first is lower: less than 10 nM for the first, 10 to 100 nM for the second.

`Cc1cc(Cl)cc(-c2ncnc3cc(Cn4c(=O)ccn(C5CC5)c4=O)sc23)c1CC1CNCCO1` (stereo not shown) [Example 165, 3-((4-(5-chloro-3-methyl-2-(morpholin-2-ylmethyl)phenyl)thieno[3,2-d]pyrimidin-6-yl)methyl)-1-cyclopropylpyrimidine-2,4(1H,3H)-dione] and `Cc1cc(Cl)cc(-c2ncnc3cc(Cn4c(=O)ccn(C)c4=O)sc23)c1CC1CNCCO1` (stereo not shown) [Example 162, 3-((4-(5-chloro-3-methyl-2-(morpholin-2-ylmethyl)phenyl)thieno[3,2-d]pyrimidin-6-yl)methyl)-1-methylpyrimidine-2,4(1H,3H)-dione] cannot be ordered by IC50: less than 10 nM for the first, less than 10 nM for the second.
